# Results from US20260262643A1, “HERBICIDAL BENZOXAZINES” (FMC CORPORATION, priority 2022, published 2026).
# How the values were obtained:
# [1] = test system: corn; assay: Test C postemergence; assay type: in vivo, Zea mays; settings: Postemergence, 1000 g ai/ha, 0 to 100 scale, 0 no effect, 100 complete control
# Summary of the method: (§1)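 Soil-applied (pre) and foliar (post, 1–2 leaf, 2–10 cm) sprays; surfactant-containing non-phytotoxic solvent vehicle; loam/sand substrate. Readout: visual % control at 10 d, greenhouse, versus untreated.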
# [2] = test system: Pigweed, Redroot; assay: Test C postemergence; assay type: in vivo, Amaranthus retroflexus; settings: 1000 g ai/ha, 0 to 100 scale, 0 no effect, 100 complete control
# From the text: (§2) Seeds of plant species selected from barnyardgrass (Echinochloa crusgalli), blackgrass (Alopecurus myosuroides), corn (Zea mays), foxtail, giant (giant foxtail, Setaria faberi), green foxtail (Setaria viridis), goosegrass (Eleusine indica), kochia (Bassia scoparia), oat, wild (wild oat, Avena fatua), pigweed, palmer (palmer amaranth, palmer pigweed, Amaranthus palmeri), Pigweed, Redroot (redroot pigweed, Amaranthus retroflexus), ragweed (common ragweed, Ambrosia artemisiifolia), ryegrass, Italian ([…] ryegrass, Lolium multiflorum), soybean (Glycine max), and wheat (Triticum aestivum) were planted into a blend of loam soil and sand and treated preemergence with a directed soil spray using test chemicals formulated in a non-phytotoxic solvent mixture which included a surfactant. At the same time, plants selected from these crops and weed species and also galium (catchweed bedstraw, Galium aparine) and horseweed (Erigeron canadensis) were planted in pots containing the same blend of loam soil and sand and treated with postemergence applications of test chemicals formulated in the same manner. Plants ranged in height from 2 to 10 cm and were in the one- to two-leaf stage for the postemergence treatment. Treated plants and untreated controls were maintained in a greenhouse for 10 days, after which time all treated plants were compared to untreated controls and visually evaluated for injury. Plant response ratings, summarized in Table C, are based on a 0 to 100 scale where 0 is no effect and 100 is complete control. A dash (-) response means no test result.
# [3] = test system: ragweed; assay: Test C postemergence; assay type: in vivo, Ambrosia artemisiifolia; settings: Postemergence, 1000 g ai/ha; 0 to 100 scale, 0 no effect, 100 complete control
# Summary of the method: as §1
# [4] = test system: barnyardgrass; assay: Test C postemergence; assay type: in vivo, Echinochloa crusgalli; settings: Postemergence, 1000 g ai/ha; 0 to 100 scale, 0 no effect, 100 complete control
# Summary of the method: as §1
# [5] = test system: ragweed; assay: Test C preemergence; assay type: in vivo, Ambrosia artemisiifolia; settings: Preemergence, 1000 g ai/ha; visual rating after 10 days, 0 to 100 scale (0 no effect, 100 complete control)
# Summary of the method: as §1
# [6] = test system: ryegrass, Italian; assay: Test C postemergence; assay type: in vivo, Lolium multiflorum; settings: Postemergence, 1000 g ai/ha; 0 to 100 scale, 0 no effect, 100 complete control
# Summary of the method: as §1
# [7] = test system: kochia; assay: Test C postemergence; assay type: in vivo, Bassia scoparia; settings: Postemergence, 1000 g ai/ha; 0 to 100 scale, 0 no effect, 100 complete control
# Summary of the method: as §1
# [8] = test system: barnyardgrass; assay: Test C preemergence; assay type: in vivo, Echinochloa crusgalli; settings: Preemergence, 1000 g ai/ha; visual rating after 10 days, 0 to 100 scale (0 no effect, 100 complete control)
# Summary of the method: as §1
# [9] = test system: kochia; assay: Test C preemergence; assay type: in vivo, Bassia scoparia; settings: Preemergence, 1000 g ai/ha; visual rating after 10 days, 0 to 100 scale (0 no effect, 100 complete control)
# Summary of the method: as §1
# [10] = test system: blackgrass; assay: Test C postemergence; assay type: in vivo, Alopecurus myosuroides; settings: Postemergence, 1000 g ai/ha, 0 to 100 scale, 0 no effect, 100 complete control
# Summary of the method: as §1
# [11] = test system: wheat; assay: Test C postemergence; assay type: in vivo, Triticum aestivum; settings: Postemergence, 1000 g ai/ha; 0 to 100 scale, 0 no effect, 100 complete control
# Summary of the method: as §1
# [12] = test system: galium; assay: Test C postemergence; assay type: in vivo, Galium aparine; settings: Postemergence, 1000 g ai/ha; 0 to 100 scale, 0 no effect, 100 complete control
# Summary of the method: as §1
# [13] = test system: foxtail, giant; assay: Test C postemergence; assay type: in vivo, Setaria faberi; settings: Postemergence, 1000 g ai/ha; 0 to 100 scale, 0 no effect, 100 complete control
# Summary of the method: as §1
# [14] = test system: ryegrass, Italian; assay: Test C preemergence; assay type: in vivo, Lolium multiflorum; settings: Preemergence, 1000 g ai/ha; visual rating after 10 days, 0 to 100 scale (0 no effect, 100 complete control)
# Summary of the method: as §1
# [15] = test system: foxtail, giant; assay: Test C preemergence; assay type: in vivo, Setaria faberi; settings: Preemergence, 1000 g ai/ha; visual rating after 10 days, 0 to 100 scale (0 no effect, 100 complete control)
# Summary of the method: as §1
# [16] = test system: Pigweed, Redroot; assay: Test C preemergence; assay type: in vivo, Amaranthus retroflexus; settings: 1000 g ai/ha, visual rating after 10 days, 0 to 100 scale (0 no effect, 100 complete control)
# From the text: as §2
Structure (SMILES),"Corn plant response rating (crop injury, 0 = no effect, 100 = complete kill) at 1000 g/ha ([1]; Zea mays, post-emergence, 240 h)","Plant response rating, Pigweed, Redroot [2]","Plant response rating, Ragweed [3]","Plant response rating, Barnyardgrass [4]","Plant response rating, Ragweed [5]","Plant response rating, Ryegrass, Italian [6]","Plant response rating, Kochia [7]","Plant response rating, Barnyardgrass [8]","Plant response rating, Kochia [9]","pest or weed control at 1000 g/ha ([10]; Alopecurus myosuroides, post-emergence, 240 h, read-out: Plant response rating, Blackgrass)","Plant response rating, Wheat [11]","Plant response rating, Galium [12]","Plant response rating, Foxtail, Giant [13]","Plant response rating, Ryegrass, Italian [14]","Plant response rating, Foxtail, Giant [15]","Plant response rating, Corn [1]","Plant response rating, Pigweed, Redroot [16]","Plant response rating, Blackgrass [10]"
O=C(c1cccc(-n2cncn2)c1)N1CC2(CC2)Oc2ccccc21 [Compound 201],0%,0,0,10,0,0,10,0,0,0%,0,40,10,0,10,–,–,–
C[C@H]1CN(C(=O)c2cccc(-c3cccnc3)c2)c2cccc(Cl)c2O1 [Compound 200],–,20,0,10,0,0,0,0,0,–,0,30,0,0,0,20,0,0
